≈ marks a conversion by molar mass, not a printed value.
experiment: Solubility in PBS; format: physicochemical; conditions: not given
Procedure: After ultracentrifugation of the PBS solution, the supernatant was analyzed by HPLC and compared to an HPLC injection 50 μM peptide DMSO solution. Solubility was determined by: [(Area of PBS peak)/(Area of DMSO peak)]*50 uM.

Row | SMILES | Solubility
1 | CC(=O)N1CCC[C@]12CC=CCCCC1(CCCC=CCCCOC(=O)N3CC[C@@](C(=O)N[C@@H](Cc4ccccc4)C(=O)N[C@@H](Cc4csc5ccccc45)C(=O)N[C@@H](CCC(N)=O)C(N)=O)(C3)NC(=O)[C@H](CC(C)C)NC(=O)[C@H](Cc3ccccc3)NC(=O)[C@H](C)NC(=O)[C@H](CCCCNC(C)C)NC(=O)[C@H]([C@@H](C)O)NC(=O)[C@H](CC(=O)O)NC1=O)NC(=O)[C@H](CC(C)(C)C)NC(=O)[C@H](CC(N)=O)NC2=O (single isomer, unassigned) [I-1289, Ac-PL3-Asn-Npg-B5-Asp-Thr-iPrLys-Ala-Phe-Leu-PyrS2-Phe-BztA-Gln-NH2] | 10 µM (≈ 20 µg/mL)
2 | CC(=O)N1CCC[C@]12CC=CCCCC1(CCCC=CCCCOC(=O)N3CC[C@@](C(=O)N[C@@H](Cc4ccsc4)C(=O)N[C@@H](Cc4csc5ccccc45)C(=O)N[C@@H](CCC(N)=O)C(=O)NC4CCCCC4)(C3)NC(=O)[C@H](CC(N)=O)NC(=O)[C@H](Cc3ccccc3)NC(=O)[C@H](C)NC(=O)[C@H](C)NC(=O)[C@H](CC(=O)O)NC(=O)[C@H](CC(=O)O)NC1=O)NC(=O)[C@H](CC(C)(C)C)NC(=O)[C@H](CC(=O)O)NC2=O (stereo partly drawn) [I-1374, PL3-Asp-Npg-B5-Asp-Asp-Ala-Ala-Phe-Asn-PyrS2-3Thi-BztA-Gln-NHCyHe] | 10 µM (≈ 20 µg/mL)
3 | CC(=O)N1CCC[C@]12CC=CCCCC1(CCCC=CCCCOC(=O)N3CC[C@@](C(=O)N[C@@H](Cc4ccccc4Cl)C(=O)N[C@@H](Cc4csc5ccccc45)C(=O)N[C@@H](CO)C(N)=O)(C3)NC(=O)[C@H](CC(C)C)NC(=O)[C@H](Cc3ccccc3)NC(=O)[C@H](C)NC(=O)[C@H](C)NC(=O)[C@H](Cc3cccc(C(=O)O)c3)NC(=O)[C@H](CC(=O)O)NC1=O)NC(=O)[C@H](CC(C)(C)C)NC(=O)[C@H](CC(=O)O)NC2=O (stereo partly drawn) [I-1333, PL3-Asp-Npg-B5-Asp-3COOHF-Ala-Ala-Phe-Leu-PyrS2-2C1F-BztA-Ser-NH2] | 10 µM (≈ 19.8 µg/mL)
4 | CC(=O)N1CCC[C@]12CC=CCCCC1(CCCC=CCCCOC(=O)N3CC[C@@](C(=O)N[C@@H](Cc4ccccc4)C(=O)N[C@@H](Cc4cccc5ccccc45)C(=O)N[C@@H](CCC(N)=O)C(N)=O)(C3)NC(=O)[C@H](CC(C)C)NC(=O)[C@H](Cc3ccccc3)NC(=O)[C@H](C)NC(=O)[C@H](C)NC(=O)[C@H]([C@@H](C)O)NC(=O)[C@H](CC(=O)O)NC1=O)NC(=O)[C@H](CC(C)(C)C)NC(=O)[C@H](CC(N)=O)NC2=O (stereo partly drawn) [I-1290, Ac-PL3-Asn-Npg-B5-Asp-Thr-Ala-Ala-Phe-Leu-PyrS2-Phe-1NapA-Gln-NH2] | 10 µM (≈ 18.9 µg/mL)
5 | CC(=O)N1CCC[C@]12CC=CCCCC1(CCCC=CCCCOC(=O)N3CC[C@@](C(=O)N[C@@H](Cc4ccsc4)C(=O)N[C@@H](Cc4csc5ccccc45)C(=O)N[C@@H](CCC(N)=O)C(N)=O)(C3)NC(=O)[C@H](CC(N)=O)NC(=O)[C@H](Cc3ccccc3)NC(=O)[C@H](C)NC(=O)[C@H](C)NC(=O)[C@H](CC(=O)O)NC(=O)[C@H](CCN)NC1=O)NC(=O)[C@H](CC(C)(C)C)NC(=O)[C@H](CC(=O)O)NC2=O (stereo partly drawn) [I-1216, Ac-PL3-Asp-Npg-B5-Dab-Asp-Ala-Ala-Phe-Asn-PyrS2-3Thi-BztA-Gln-NH2] | 10 µM (≈ 19 µg/mL)
6 | CC(=O)N1CCC[C@]12CC=CCCCC1(CCCC=CCCCOC(=O)N3CC[C@@](C(=O)N[C@@H](Cc4ccccc4)C(=O)N[C@@H](Cc4cccc5ccccc45)C(=O)N[C@@H](CCC(N)=O)C(N)=O)(C3)NC(=O)[C@H](CC(C)C)NC(=O)[C@H](Cc3ccccc3)NC(=O)[C@H](C)NC(=O)[C@H](C)NC(=O)[C@H]([C@@H](C)O)NC(=O)[C@H](CC(N)=O)NC1=O)NC(=O)[C@H](CC(C)(C)C)NC(=O)[C@H](CC(=O)O)NC2=O (stereo partly drawn) [I-1298, Ac-PL3-Asp-Npg-B5-Asn-Thr-Ala-Ala-Phe-Leu-PyrS2-Phe-1NapA-Gln-NH2] | 10 µM (≈ 18.9 µg/mL)
7 | CC(=O)N1CCC[C@]12CC=CCCCC1(CCCC=CCCCOC(=O)N3CC[C@@](C(=O)N[C@@H](Cc4ccccc4)C(=O)N[C@@H](Cc4csc5ccccc45)C(=O)N[C@@H](CCC(N)=O)C(N)=O)(C3)NC(=O)[C@H](CC(C)C)NC(=O)[C@H](Cc3ccccc3)NC(=O)[C@H](C)NC(=O)[C@H](C)NC(=O)[C@H]([C@@H](C)O)NC(=O)[C@H](CC(N)=O)NC1=O)NC(=O)[C@H](C)NC(=O)[C@H](CC(=O)O)NC2=O (single isomer, unassigned) [I-1295, Ac-PL3-Asp-Ala-B5-Asn-Thr-Ala-Ala-Phe-Leu-PyrS2-Phe-BztA-Gln-NH2] | 10 µM (≈ 18.4 µg/mL)
8 | CC(=O)N1CCC[C@]12CC=CCCCC1(CCCC=CCCCOC(=O)N3CC[C@@](C(=O)N[C@@H](Cc4ccccc4)C(=O)N[C@@H](Cc4csc5ccccc45)C(=O)N[C@H](C(N)=O)[C@@H](C)O)(C3)NC(=O)[C@H](CC(C)C)NC(=O)[C@H](Cc3ccccc3)NC(=O)[C@H](C)NC(=O)[C@H](CCCCNC(C)C)NC(=O)[C@H]([C@@H](C)O)NC(=O)[C@H](CC(=O)O)NC1=O)NC(=O)[C@H](C)NC(=O)[C@H](CC(N)=O)NC2=O (stereo partly drawn) [I-1384, Ac-PL3-Asn-Ala-B5-Asp-Thr-iPrLys-Ala-Phe-Leu-PyrS2-Phe-BztA-Thr-NH2] | 10 µM (≈ 19.1 µg/mL)
9 | CC(=O)N1CCC[C@]12CC=CCCCC1(CCCC=CCCCOC(=O)N3CC[C@@](C(=O)N[C@@H](Cc4ccccc4)C(=O)N[C@@H](Cc4csc5ccccc45)C(=O)N[C@@H](CCC(N)=O)C(N)=O)(C3)NC(=O)[C@H](CC(C)C)NC(=O)[C@H](Cc3ccccc3)NC(=O)[C@H](C)NC(=O)[C@H](C)NC(=O)[C@H]([C@@H](C)O)NC(=O)[C@H](CC(=O)O)NC1=O)NC(=O)[C@H](C)NC(=O)[C@H](CC(N)=O)NC2=O (single isomer, unassigned) [I-1286, Ac-PL3-Asn-Ala-B5-Asp-Thr-Ala-Ala-Phe-Leu-PyrS2-Phe-BztA-Gln-NH2] | 10 µM (≈ 18.4 µg/mL)
10 | CC(=O)N1CCC[C@]12CC=CCCCC1(CCCC=CCCCOC(=O)N3CC[C@@](C(=O)N[C@@H](Cc4ccccc4Cl)C(=O)N[C@@H](Cc4csc5ccccc45)C(=O)N[C@@H](CO)C(N)=O)(C3)NC(=O)[C@H](Cc3ccccc3)NC(=O)[C@H](Cc3ccccc3)NC(=O)[C@H](C)NC(=O)[C@H](C)NC(=O)[C@H](Cc3cccc(C(=O)O)c3)NC(=O)[C@H](CC(=O)O)NC1=O)NC(=O)[C@H](CC(C)(C)C)NC(=O)[C@H](CC(=O)O)NC2=O (stereo partly drawn) [I-1339, PL3-Asp-Npg-B5-Asp-3COOHF-Ala-Ala-Phe-Phe-PyrS2-2C1F-BztA-Ser-NH2] | 10 µM (≈ 20.1 µg/mL)

same assay, conditions: Solubility (uM)

Row | SMILES | solubility at 15 min
11 | CC(=O)N1CCC[C@]12CC=CCCCC1(CCCC=CCCCOC(=O)N3CC[C@@](C(=O)N[C@@H](Cc4ccccc4Br)C(=O)N[C@@H](Cc4csc5ccccc45)C(=O)N[C@@H](CCC(N)=O)C(N)=O)(C3)NC(=O)[C@H](Cc3ccccc3)NC(=O)[C@H](Cc3ccccc3)NC(=O)[C@H](C)NC(=O)[C@H](C)NC(=O)[C@H](CC(=O)O)NC(=O)[C@H](CC(=O)O)NC1=O)NC(=O)[C@H](CC(C)(C)C)NC(=O)[C@H](CC(=O)O)NC2=O (stereo partly drawn) [I-1325, PL3-Asp-Npg-B5-Asp-Asp-Ala-Ala-Phe-Phe-PyrS2-2BrF-BztA-Gln-NH2] | 12 µM (≈ 24.3 µg/mL)
12 | COCCC(=O)N1CCC[C@]12CC=CCCCC1(CCCC=CCCCOC(=O)N3CC[C@@](C(=O)N[C@@H](Cc4ccccc4)C(=O)N[C@@H](Cc4csc5ccccc45)C(=O)N[C@@H](CO)C(N)=O)(C3)NC(=O)[C@H](CO)NC(=O)[C@H](Cc3ccccc3)NC(=O)[C@H](C)NC(=O)[C@H](C)NC(=O)[C@H](CC(=O)O)NC(=O)[C@H](CC(=O)O)NC1=O)NC(=O)[C@H](CC(C)(C)C)NC(=O)[C@H](CC(=O)O)NC2=O (stereo partly drawn) [I-1357, PL3-Asp-Npg-B5-Asp-Asp-Ala-Ala-Phe-Ser-PyrS2-Phe-BztA-Ser-NH2] | 48 µM (≈ 90.6 µg/mL)
13 | CC(=O)N1CCC[C@]12CC=CCCCC1(CCCC=CCCCOC(=O)N3CC[C@@](C(=O)N[C@@H](CCc4ccccc4)C(=O)N[C@@H](Cc4csc5ccccc45)C(=O)N[C@@H](CCC(N)=O)C(N)=O)(C3)NC(=O)[C@H](CC(C)C)NC(=O)[C@H](Cc3ccccc3)NC(=O)[C@H](C)NC(=O)[C@H](C)NC(=O)[C@H](CC(=O)O)NC(=O)[C@H](CC(=O)O)NC1=O)NC(=O)[C@H](CC(C)(C)C)NC(=O)[C@H](CC(=O)O)NC2=O (stereo partly drawn) [I-1350, PL3-Asp-Npg-B5-Asp-Asp-Ala-Ala-Phe-Leu-PyrS2-hPhe-BztA-Gln-NH2] | 28 µM (≈ 53.9 µg/mL)
14 | COc1ccccc1C[C@H](NC(=O)[C@]12CCN(C1)C(=O)OCCCC=CCCCC1(CCCC=CC[C@]3(CCCN3C(C)=O)C(=O)N[C@@H](CC(=O)O)C(=O)N[C@@H](CC(C)(C)C)C(=O)N1)C(=O)N[C@@H](CC(=O)O)C(=O)N[C@@H](CC(=O)O)C(=O)N[C@@H](C)C(=O)N[C@@H](C)C(=O)N[C@@H](Cc1ccccc1)C(=O)N[C@@H](Cc1ccccc1)C(=O)N2)C(=O)N[C@@H](Cc1csc2ccccc12)C(=O)N[C@@H](CCC(N)=O)C(N)=O (stereo partly drawn) [I-1328, PL3-Asp-Npg-B5-Asp-Asp-Ala-Ala-Phe-Phe-PyrS2-2OMeF-BztA-Gln-NH2] | 26 µM (≈ 51.4 µg/mL)
15 | CC(=O)N1CCC[C@]12CC=CCCCC1(CCCC=CCCCOC(=O)N3CC[C@@](C(=O)N[C@@H](Cc4cccs4)C(=O)N[C@@H](Cc4csc5ccccc45)C(=O)N[C@@H](CCC(N)=O)C(N)=O)(C3)NC(=O)[C@H](CC(C)C)NC(=O)[C@H](Cc3ccccc3)NC(=O)[C@H](C)NC(=O)[C@H](C)NC(=O)[C@H](CC(=O)O)NC(=O)[C@H](CC(=O)O)NC1=O)NC(=O)[C@H](CC(C)(C)C)NC(=O)[C@H](CC(=O)O)NC2=O (stereo partly drawn) [I-1344, PL3-Asp-Npg-B5-Asp-Asp-Ala-Ala-Phe-Leu-PyrS2-2Thi-BztA-Gln-NH2] | 44 µM (≈ 84.4 µg/mL)
16 | CC(=O)N1CCC[C@]12CC=CCCCC1(CCCC=CCCCOC(=O)N3CC[C@@](C(=O)N[C@@H](Cc4ccccc4Br)C(=O)N[C@@H](Cc4csc5ccccc45)C(=O)N[C@@H](CCC(N)=O)C(N)=O)(C3)NC(=O)[C@H](CC(C)C)NC(=O)[C@H](Cc3ccccc3)NC(=O)[C@H](C)NC(=O)[C@H](C)NC(=O)[C@H](CC(=O)O)NC(=O)[C@H](CC(=O)O)NC1=O)NC(=O)[C@H](CC(C)(C)C)NC(=O)[C@H](CC(=O)O)NC2=O (stereo partly drawn) [I-1324, PL3-Asp-Npg-B5-Asp-Asp-Ala-Ala-Phe-Leu-PyrS2-2BrF-BztA-Gln-NH2] | 25 µM (≈ 49.8 µg/mL)
